molecular target: T1, human TLR7 (Homo sapiens, UniProt Q9NYK1); assay: TLR7 inhibition reporter assay (HEK-Blue cells, SEAP reporter, gardiquimod stimulation); assay type: cell-based; settings: HEK-Blue cells overexpressing human TLR7, gardiquimod 7.5 μM
T1 construct: host or cells: HEK-Blue cells
T1 sequence (Q9NYK1 27-1049): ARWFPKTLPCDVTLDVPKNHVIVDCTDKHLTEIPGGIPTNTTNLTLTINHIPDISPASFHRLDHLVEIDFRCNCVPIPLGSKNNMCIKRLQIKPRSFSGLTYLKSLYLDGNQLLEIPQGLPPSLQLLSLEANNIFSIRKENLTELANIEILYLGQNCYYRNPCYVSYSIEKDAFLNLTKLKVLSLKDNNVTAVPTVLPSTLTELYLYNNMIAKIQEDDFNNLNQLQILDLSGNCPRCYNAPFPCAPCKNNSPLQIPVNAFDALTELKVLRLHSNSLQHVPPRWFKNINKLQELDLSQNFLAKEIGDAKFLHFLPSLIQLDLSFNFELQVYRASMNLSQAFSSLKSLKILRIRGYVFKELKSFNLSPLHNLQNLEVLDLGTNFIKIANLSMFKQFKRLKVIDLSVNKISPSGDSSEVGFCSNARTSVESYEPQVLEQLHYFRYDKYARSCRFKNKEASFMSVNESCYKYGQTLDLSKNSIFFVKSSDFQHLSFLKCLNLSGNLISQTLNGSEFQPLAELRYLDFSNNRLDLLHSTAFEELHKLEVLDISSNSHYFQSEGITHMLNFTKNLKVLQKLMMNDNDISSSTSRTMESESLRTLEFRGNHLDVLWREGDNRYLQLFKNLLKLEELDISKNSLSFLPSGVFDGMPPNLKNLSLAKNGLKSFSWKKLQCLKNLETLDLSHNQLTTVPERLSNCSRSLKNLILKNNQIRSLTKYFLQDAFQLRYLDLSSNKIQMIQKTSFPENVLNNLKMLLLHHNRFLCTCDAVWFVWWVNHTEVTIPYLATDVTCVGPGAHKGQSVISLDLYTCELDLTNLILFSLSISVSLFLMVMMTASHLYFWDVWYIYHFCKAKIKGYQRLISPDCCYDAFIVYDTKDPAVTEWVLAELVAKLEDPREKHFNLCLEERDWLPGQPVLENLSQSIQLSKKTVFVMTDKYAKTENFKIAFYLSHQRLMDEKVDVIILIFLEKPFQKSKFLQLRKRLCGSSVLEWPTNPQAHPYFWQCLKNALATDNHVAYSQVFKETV
How it was run: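 SEAP readout via HEK-Blue Detection medium after 22 h at 37 °C, 5% CO2 defines inhibition, normalized between agonist-plus-DMSO wells and a reference inhibitor. Compound dose range 0.05 nM–50 μM; TLR7 cells at 15,000/well (gardiquimod), TLR8 at 20,000/well (R848).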

SMILES | IC50
COc1ccc(-c2[nH]c3ccc(C4CCN(C5CCCN(CC(C)C)CC5)CC4)cc3c2C)cc1OC (centres unmarked) [Example 95, 2-(3,4-dimethoxyphenyl)-5-(1-(1-isobutylazepan-4-yl)piperidin-4-yl)-3-methyl-1H-indole] | 0.819 µM
COc1ccc(-c2[nH]c3ccc(C4CCN(C(=O)CN5CCN(C)CC5)CC4)cc3c2C)cc1OC [Example 409, 1-(4-(2-(3,4-dimethoxyphenyl)-3-methyl-1H-indol-5-yl)piperidin-1-yl)-2-(4-methylpiperazin-1-yl)ethan-1-one] | 1.01 µM
COc1ccc(-c2[nH]c3ccc(C4CCN(C5CCN(CC(C)(C)CO)CC5)CC4)cc3c2C)cc1OC [Example 69, 3-(4-(2-(3,4-dimethoxyphenyl)-3-methyl-1H-indol-5-yl)-[1,4′-bipiperidin]-1′-yl)-2,2-dimethylpropan-1-ol] | 0.238 µM
COc1ccc(-c2[nH]c3ccc(C4CCN(C5CCN(CC6CCCC6)CC5)CC4)cc3c2C)cc1OC [Example 65, 5-(1′-(cyclopentylmethyl)-[1,4′-bipiperidin]-4-yl)-2-(3,4-dimethoxyphenyl)-3-methyl-1H-indole] | 24 µM
COc1ccc(-c2[nH]c3ccc(C4CCN(C5CCN(CC6CC6)CC5)CC4)cc3c2C)cc1OC [Example 3, 5-(1′-(cyclopropylmethyl)-[1,4′-bipiperidin]-4-yl)-2-(3,4-dimethoxyphenyl)-3-methyl-1H-indole] | 0.339 µM
CCN(CC)C(=O)C1CCCN(CC(=O)N2CCC(c3ccc4[nH]c(-c5ccc(OC)c(OC)c5)c(CC(F)(F)F)c4c3)CC2)C1 (centres unmarked) [Example 420, 1-(2-(4-(2-(3,4-dimethoxyphenyl)-3-(2,2,2-trifluoroethyl)-1H-indol-5-yl)piperidin-1-yl)-2-oxoethyl)-N,N-diethylpiperidine-3-carboxamide] | 0.066 µM
COc1ccc(-c2[nH]c3ccc(C4CCN(C(=O)CN5CCCC(C(=O)N(C)C)C5)CC4)cc3c2CC(F)(F)F)cc1OC (centres unmarked) [Example 419, 1-(2-(4-(2-(3,4-dimethoxyphenyl)-3-(2,2,2-trifluoroethyl)-1H-indol-5-yl)piperidin-1-yl)-2-oxoethyl)-N,N-dimethylpiperidine-3-carboxamide] | 0.031 µM
COc1ccc(-c2[nH]c3ccc(C4CCN(C5CCN(C6CCC(C)CC6)CC5)CC4)cc3c2C)cc1OC (centres unmarked) [Example 80, 2-(3,4-dimethoxyphenyl)-3-methyl-5-(1′-(4-methylcyclohexyl)-[1,4′-bipiperidin]-4-yl)-1H-indole] | 0.433 µM
COc1ccc(-c2[nH]c3ccc(C4CCN(C5CCN(C6CCCCC6)CC5)CC4)cc3c2C)cc1OC [Example 68, 5-(1′-cyclohexyl-[1,4′-bipiperidin]-4-yl)-2-(3,4-dimethoxyphenyl)-3-methyl-1H-indole] | 0.288 µM
COc1ccc(-c2[nH]c3ccc(C4CCN(C5CCN(C6CCCC6)CC5)CC4)cc3c2C)cc1OC [Example 62, 5-(1′-cyclopentyl-[1,4′-bipiperidin]-4-yl)-2-(3,4-dimethoxyphenyl)-3-methyl-1H-indole] | 0.225 µM
COc1ccc(-c2[nH]c3ccc(C4CCN(CC5CCCCN5C)CC4)cc3c2C)cc1OC (centres unmarked) [Example 49, 2-(3,4-dimethoxyphenyl)-3-methyl-5-(1-((1-methylpiperidin-2-yl)methyl)piperidin-4-yl)-1H-indole] | 1.36 µM

From US11180474B2 (BRISTOL-MYERS SQUIBB COMPANY, priority 2016, dated 2021)
